Reference: PMC4452589, “An evaluation of the brain distribution of [^11C]GSK1034702, a muscarinic-1 (M1) positive allosteric modulator in the living human brain using positron emission tomography” (EJNMMI Research, 2014)
Read-outs that look alike come from different tables or passages of the source. Values belong to the molecule of their own block, whether it stands above or below them.

Test: [11C]GSK1034702 PET brain distribution and kinetics in healthy male humans
Type: in vivo
Conditions: human
Procedure: An open-label PET study (GSK study number 110771) was conducted to assess the transport of [^11C]GSK1034702 across the BBB and its distribution in the living human brain. Four healthy males aged between 35 and 55 years old, with body mass index (BMI) between 19.0 and 29.0 kg/m^2, and the absence of past or present neurological, medical or psychiatric illnesses and concomitant medications were enrolled. Clinical status was assessed by history, physical examination, routine blood tests, urine toxicology and electrocardiogram. All subjects provided written informed consent. The study was approved by the Edinburgh Independent Ethics Committee for Medical Research and permission to administer radioisotopes was obtained from the Administration of Radioactive Substances Advisory Committee of the UK. Subjects were recruited by and monitored by the Hammersmith Medicines Research (HMR) clinic. All scanning procedures were performed at the GlaxoSmithKline Clinical Imaging Center, Hammersmith Hospital, London.
Each subject underwent a single study day, during which PET imaging was performed. T1-weighted structural MRI scan was performed for all subjects to provide neuroanatomical information. A tracer dose of [^11C]GSK1034702 (mass <50 μg) was administered as an IV bolus immediately before each PET scan. During the scanning day, each subject received a baseline [^11C]GSK1034702 scan, followed by a single 5-mg oral dose (p.o.) of […] and a subsequent [^11C]GSK1034702 scan approximately 4 h post-dose. Subjects returned to the clinic for a follow-up visit 7 to 14 days following the oral dose of GSK1034702.
Dynamic PET data were acquired using a Siemens Biograph 6 Truepoint with TrueV PET-CT (Siemens Healthcare, Malvern, PA, USA) in three-dimensional (3D) mode. A computed tomography (CT) scan was acquired for attenuation correction of PET data prior to administration of the radiotracer. A cannula was inserted under local anaesthesia into the radial artery, contralateral to the tracer injection site, and used to collect arterial blood samples to estimate the time course of radioactivity and metabolism of GSK1034702. The radiotracer was administered as an IV bolus over 20 s, and dynamic PET data were acquired for 90 min.
Arterial blood radioactivity was measured continuously for the first 15 min after [^11C]GSK1034702 injection, using a continuous sampling system (ABSS Allogg, Mariefred, Sweden). In addition, 12 serial discrete blood samples were obtained (at 5, 10, 15, 20, 25, 30, 40, 50, 60, 70, 80 and 90 min post injection), to determine whole blood and plasma activity. Seven samples (at 5, 10, 20, 30, 50, 70 and 90 min) were further processed by HPLC to measure the fraction of plasma activity representing unmetabolised GSK1034702. For all human studies, the non-protein-bound fraction of [^11C]GSK1034702 in arterial plasma (fP) was assessed by ultrafiltration for the blood sample taken at the beginning of the scan.
Emission PET data were binned into 26 frames (durations: 8 × 15 s, 3 × 60 s, 5 × 2 min, […], 5 × 10 min) and reconstructed using Fourier re-binning and a two-dimensional (2D) filtered back projection algorithm with a ramp filter. Image data were then smoothed with a Gaussian filter (5 mm FWHM). The PET reconstruction process included corrections for scatter, randoms and attenuation. Dynamic PET data were corrected for motion via frame-to-frame image registration and aligned with the structural T1 MRI image using SPM5 (Wellcome Trust Centre for Neuroimaging, http://www.fil.ion.ucl.ac.uk/spm) with a mutual information cost function.
The CIC Neuroanatomical Atlas was non-linearly deformed into the individual's space to obtain a personalised anatomical parcellation of ROIs. These ROIs were applied to the dynamic emission data, and regional TACs were obtained for the whole brain, frontal cortex, occipital cortex, striatum, thalamus, hippocampus and cerebellum. […]

[1] = male, whole brain, intravenous, two-tissue compartmental model, read-out: whole brain VT

- Kp (male, cortex, intravenous, read-out: VT measured in the human cortex): 4.9
- Kp [1]: 4.9
SMILES: Cc1cc(F)c2[nH]c(=O)n(C3CCN(C4CCOCC4)CC3)c2c1 [GSK1034702]

- K 1 (Cerebellum, Subject 1 Scan 1 (baseline)): 0.23 mL.cm^−3.min^−1
- K 1 (Cerebellum, Subject 2 Scan 1 (baseline)): 0.19 mL.cm^−3.min^−1
- K 1 (Cerebellum, Subject 2 Scan 2 (post dose, 5 mg oral)): 0.15 mL.cm^−3.min^−1
- K 1 (Cerebellum, Subject 4 Scan 1 (baseline)): 0.19 mL.cm^−3.min^−1
- K 1 (Cerebellum, Subject 4 Scan 2 (post dose, 5 mg oral)): 0.19 mL.cm^−3.min^−1
- K 1 (Cortex, Subject 1 Scan 1 (baseline)): 0.19 mL.cm^−3.min^−1
- K 1 (Cortex, Subject 2 Scan 1 (baseline)): 0.16 mL.cm^−3.min^−1
- K 1 (Cortex, Subject 2 Scan 2 (post dose, 5 mg oral)): 0.12 mL.cm^−3.min^−1
- K 1 (Cortex, Subject 4 Scan 1 (baseline)): 0.16 mL.cm^−3.min^−1
- K 1 (Cortex, Subject 4 Scan 2 (post dose, 5 mg oral)): 0.17 mL.cm^−3.min^−1
- K 1 (MTL, Subject 1 Scan 1 (baseline)): 0.33 mL.cm^−3.min^−1
- K 1 (MTL, Subject 2 Scan 1 (baseline)): 0.19 mL.cm^−3.min^−1
- K 1 (MTL, Subject 2 Scan 2 (post dose, 5 mg oral)): 0.16 mL.cm^−3.min^−1
- K 1 (MTL, Subject 4 Scan 1 (baseline)): 0.24 mL.cm^−3.min^−1
- K 1 (MTL, Subject 4 Scan 2 (post dose, 5 mg oral)): 0.25 mL.cm^−3.min^−1
- K 1 (Striatum, Subject 1 Scan 1 (baseline)): 0.20 mL.cm^−3.min^−1
- K 1 (Striatum, Subject 2 Scan 1 (baseline)): 0.16 mL.cm^−3.min^−1
- K 1 (Striatum, Subject 2 Scan 2 (post dose, 5 mg oral)): 0.13 mL.cm^−3.min^−1
- K 1 (Striatum, Subject 4 Scan 1 (baseline)): 0.18 mL.cm^−3.min^−1
- K 1 (Striatum, Subject 4 Scan 2 (post dose, 5 mg oral)): 0.18 mL.cm^−3.min^−1
- K 1 (Thalamus, Subject 1 Scan 1 (baseline)): 0.29 mL.cm^−3.min^−1
- K 1 (Thalamus, Subject 2 Scan 1 (baseline)): 0.19 mL.cm^−3.min^−1
- K 1 (Thalamus, Subject 2 Scan 2 (post dose, 5 mg oral)): 0.15 mL.cm^−3.min^−1
- K 1 (Thalamus, Subject 4 Scan 1 (baseline)): 0.20 mL.cm^−3.min^−1
- K 1 (Thalamus, Subject 4 Scan 2 (post dose, 5 mg oral)): 0.20 mL.cm^−3.min^−1
- K 1 (White matter, Subject 1 Scan 1 (baseline)): 0.13 mL.cm^−3.min^−1
- K 1 (White matter, Subject 2 Scan 1 (baseline)): 0.10 mL.cm^−3.min^−1
- K 1 (White matter, Subject 2 Scan 2 (post dose, 5 mg oral)): 0.08 mL.cm^−3.min^−1
- K 1 (White matter, Subject 4 Scan 1 (baseline)): 0.11 mL.cm^−3.min^−1
- K 1 (White matter, Subject 4 Scan 2 (post dose, 5 mg oral)): 0.11 mL.cm^−3.min^−1
- change in MTL VT following oral dose of 5 mg GSK1034702 (both subjects with pre- and post-dose data): small (but non-significant) reduction
- Kp (brain cortex, intravenous, Cortex, Subject 1 Scan 1 (baseline), read-out: V T): 5.37
- Kp (brain cortex, intravenous, Cortex, Subject 2 Scan 1 (baseline), read-out: V T): 5
- Kp (brain cortex, intravenous, Cortex, Subject 4 Scan 1 (baseline), read-out: V T): 5.57
- Kp (brain cortex, po, Cortex, Subject 2 Scan 2 (post dose, 5 mg oral), read-out: V T): 4.03
- Kp (brain cortex, po, Cortex, Subject 4 Scan 2 (post dose, 5 mg oral), read-out: V T): 4.81
- Kp (brain striatum, intravenous, Striatum, Subject 1 Scan 1 (baseline), read-out: V T): 5.59
- Kp (brain striatum, intravenous, Striatum, Subject 2 Scan 1 (baseline), read-out: V T): 5.05
- Kp (brain striatum, intravenous, Striatum, Subject 4 Scan 1 (baseline), read-out: V T): 5.83
- Kp (brain striatum, po, Striatum, Subject 2 Scan 2 (post dose, 5 mg oral), read-out: V T): 5.29
- Kp (brain striatum, po, Striatum, Subject 4 Scan 2 (post dose, 5 mg oral), read-out: V T): 4.93
- Kp (brain white matter, intravenous, White matter, Subject 4 Scan 1 (baseline), read-out: V T): 5.04
- Kp (cerebellum, intravenous, Cerebellum, Subject 1 Scan 1 (baseline), read-out: V T): 5.33
- Kp (cerebellum, intravenous, Cerebellum, Subject 2 Scan 1 (baseline), read-out: V T): 4.75
- Kp (cerebellum, intravenous, Cerebellum, Subject 4 Scan 1 (baseline), read-out: V T): 5.17
- Kp (cerebellum, po, Cerebellum, Subject 2 Scan 2 (post dose, 5 mg oral), read-out: V T): 3.69
- Kp (cerebellum, po, Cerebellum, Subject 4 Scan 2 (post dose, 5 mg oral), read-out: V T): 4.56
- Kp (medial temporal lobe (MTL), intravenous, MTL, Subject 1 Scan 1 (baseline), read-out: V T): 7.81
- Kp (medial temporal lobe (MTL), intravenous, MTL, Subject 2 Scan 1 (baseline), read-out: V T): 13.3
- Kp (medial temporal lobe (MTL), intravenous, MTL, Subject 4 Scan 1 (baseline), read-out: V T): 7.11
- Kp (medial temporal lobe (MTL), po, MTL, Subject 2 Scan 2 (post dose, 5 mg oral), read-out: V T): 8.3
- Kp (medial temporal lobe (MTL), po, MTL, Subject 4 Scan 2 (post dose, 5 mg oral), read-out: V T): 6.91
- change in K1 following oral dose of 5 mg GSK1034702 (post-dose versus baseline scan): no significant change
- change in VT following oral dose of 5 mg GSK1034702 (post-dose versus baseline scan): no significant change
- Kp (thalamus, intravenous, Thalamus, Subject 1 Scan 1 (baseline), read-out: V T): 6.29
- Kp (thalamus, intravenous, Thalamus, Subject 2 Scan 1 (baseline), read-out: V T): 5.44
- Kp (thalamus, intravenous, Thalamus, Subject 4 Scan 1 (baseline), read-out: V T): 5.74
- Kp (thalamus, po, Thalamus, Subject 2 Scan 2 (post dose, 5 mg oral), read-out: V T): 4.39
- Kp (thalamus, po, Thalamus, Subject 4 Scan 2 (post dose, 5 mg oral), read-out: V T): 5.11
- Kp (white matter, intravenous, White matter, Subject 1 Scan 1 (baseline), read-out: V T): 4.63
- Kp (white matter, intravenous, White matter, Subject 2 Scan 1 (baseline), read-out: V T): 4.38
- Kp (white matter, po, White matter, Subject 2 Scan 2 (post dose, 5 mg oral), read-out: V T): 4.01
- Kp (white matter, po, White matter, Subject 4 Scan 2 (post dose, 5 mg oral), read-out: V T): 4.49
- Kp (male, medial temporal lobe (MTL), intravenous, range over scans, read-out: VT in the MTL): 7 to 13
- Kp (male, white matter, intravenous, range over scans, read-out: VT in the white matter): 4 to 5
- Kp [1]: 4.9
SMILES: [11CH3]c1cc(F)c2[nH]c(=O)n(C3CCN(C4CCOCC4)CC3)c2c1 [[^11C]GSK1034702]
